From US10947575B2, “Rapid antimicrobial susceptibility test, based on an analysis of changes in morphology and growth pattern of a microbial cell under different concentrations of various antimicrobial agents, and automated cell image analysis system therefor” (priority 2014, dated 2021)
Where two headings read alike, the source gives them in different places.

What was measured:
[1] = system: E. coli ATCC 25922; assay: AST by analysis of changes in morphology and growth pattern of a microbial cell (MAC 2.0 chip imaging); format: cell-based; conditions: Normal / Filament / Swelling
Description: (§1) Four reference strains (E. coli ATCC 25922, S. aureus ATCC 29213, P. aeruginosa ATCC 27853, and E. faecalis ATCC 29212) were used as objective strains, in accordance with Clinical and Laboratory Standards Institute (CLSI) guidelines. […] The bacterial cell in MAC 2.0TM (QuantaMatrix) was monitored through a S Plan Fluor ELWD 60X (NA 1.49) lens of an inverted optical microscope (Eclipse Ti-Nikon, IX71-Olympus) provided in a heating system, and then, an electron multiplying CCD camera (QuantEM:512SC Photometrics for Eclipse Ti) was used to obtain images of a region where is adjacent to an interface between the agarose well of MAC 2.0TM and the antimicrobial agents well, over time.

[2] = system: P. aeruginosa ATCC 27853; assay: as above; format: cell-based; conditions: Normal / Filament / Swelling
Description: as §1

[3] = system: E. coli ATCC 25922; conditions: time to result 16~20 hr; cited from earlier work
[4] = system: P. aeruginosa ATCC 27853; conditions: time to result 16~20 hr; cited from earlier work
[5] = system: E. coli ATCC 25922; assay: MIC by the proposed method (SCMA), from morphology and growth pattern changes; format: cell-based; conditions: time to result 3 hr
Description: (§2) The bacterial cell in MAC 2.0™ (QuantaMatrix) was monitored through a S Plan Fluor ELWD 60X (NA 1.49) lens of an inverted optical microscope (Eclipse Ti—Nikon, IX71—Olympus) provided in a heating system, and then, an electron multiplying CCD camera (QuantEM:512SC Photometrics for Eclipse Ti) was used to obtain images of a region where is adjacent to an interface between the agarose well of MAC 2.0™ and the antimicrobial agents well, over time. […] In the AST method according to the inventive concept, minimal inhibitory concentration (MIC) was measured using the changes in morphology and growth pattern of the four reference strains (i.e., E. coli ATCC 25922, S. aureus ATCC 29213, P. aeruginosa ATCC 27853, and E. faecalis ATCC 29212) and was compared with MIC quality control (QC) per CLSI guidelines.

[6] = system: P. aeruginosa ATCC 27853; assay: as above; format: cell-based; conditions: time to result 3 hr
Description: as §2

[7] = system: E. faecalis ATCC 29212; conditions: time to result 16~20 hr, cited from earlier work
[8] = system: S. aureus ATCC 29213; assay: AST by analysis of changes in morphology and growth pattern of a microbial cell (MAC 2.0 chip imaging); format: cell-based; conditions: RRG = relatively rapid growth, RSG = relatively slow growth
Description: as §1

[9] = system: E. faecalis ATCC 29212; assay: as above; format: cell-based; conditions: RRG = relatively rapid growth, RSG = relatively slow growth
Description: as §1

[10] = system: S. aureus ATCC 29213; conditions: time to result 16~20 hr; cited from earlier work
[11] = system: S. aureus ATCC 29213; assay: MIC by the proposed method (SCMA), from morphology and growth pattern changes; format: cell-based
Description: as §2

[12] = system: E. faecalis ATCC 29212; assay: as above; format: cell-based
Description: as §2

[13] = time to result 4 hr, unit assumed

Compound | Criteria (change in morphology and growth pattern) [1] | Criteria (change in morphology and growth pattern) [2] | CLSI QC range (MIC) [3] | CLSI QC range (MIC) [4] | SCMA Results (MIC) ([5]; unit assumed) | Criteria (change in morphology and growth pattern) [9] | SCMA Results (MIC) ([12]; time to result 4 hr) | further results
NCC[C@H](O)C(=O)N[C@@H]1C[C@H](N)[C@@H](O[C@H]2O[C@H](CN)[C@@H](O)[C@H](O)[C@H]2O)[C@H](O)[C@H]1O[C@H]1O[C@H](CO)[C@@H](O)[C@H](N)[C@H]1O [Amikacin] | Normal growth | Normal | 0.5~4 | 1~4 |  |  |  | SCMA Results (MIC) [5]: 0.5~1; SCMA Results (MIC) [6]: 1~2
C[C@H]1[C@H](NC(=O)/C(=N\OC(C)(C)C(=O)O)c2csc(N)n2)C(=O)N1S(=O)(=O)O [Aztreonam] | Filament | Filament | 0.06~0.25 | 2~8 | 0.12 µg/mL |  |  | SCMA Results (MIC) [6]: 2~4
Cc1nnc(SCC2=C(C(=O)O)N3C(=O)[C@@H](NC(=O)Cn4cnnn4)[C@H]3SC2)s1 [Cefazolin] | Filament |  | 1~4 |  | 2 µg/mL |  |  | 
CO/N=C(\C(=O)N[C@@H]1C(=O)N2C(C(=O)[O-])=C(C[N+]3(C)CCCC3)CS[C@H]12)c1csc(N)n1 [Cefepime] | Filament | Filament | 0.015~0.12 | 0.5~4 |  |  |  | SCMA Results (MIC) [5]: 0.03~0.06; SCMA Results (MIC) [6]: 0.5~2
CO/N=C(\C(=O)N[C@@H]1C(=O)N2C(C(=O)O)=C(COC(C)=O)CS[C@H]12)c1csc(N)n1 [Cefotaxime] | Filament | Filament |  | 8~32 | 0.06 µg/mL |  |  | SCMA Results (MIC) ([6]; unit assumed): 16 µg/mL
CO[C@@]1(NC(=O)Cc2cccs2)C(=O)N2C(C(=O)O)=C(COC(N)=O)CS[C@@H]21 [Cefoxitin] | Filament |  | 2~8 |  | 2 µg/mL |  |  | 
CC(C)(O/N=C(\C(=O)N[C@@H]1C(=O)N2C(C(=O)[O-])=C(C[n+]3ccccc3)CS[C@H]12)c1csc(N)n1)C(=O)O [Ceftazidime] | Filament | Filament formation | 0.06~0.5 | 1~4 | 0.5 µg/mL |  |  | SCMA Results (MIC) [6]: 2~4
CC[C@H]1OC(=O)[C@H](C)[C@@H](O[C@H]2C[C@@](C)(OC)[C@@H](O)[C@H](C)O2)[C@H](C)[C@@H](O[C@@H]2O[C@H](C)C[C@H](N(C)C)[C@H]2O)[C@](C)(O)C[C@@H](C)C(=O)[C@H](C)[C@@H](O)[C@]1(C)O [Erythromycin] |  |  |  |  |  | RSG |  | CLSI QC range (MIC) [7]: 1~4; Criteria (change in morphology and growth pattern) [8]: RSG; CLSI QC range (MIC) [10]: 0.25~1; SCMA Results (MIC) [11, 13]: 0.25 µg/mL; SCMA Results (MIC) ([12]; 6 hr): 1 (6 hr)
C[C@@H](O)[C@H]1C(=O)N2C(C(=O)O)=C(SCCN=CN)C[C@H]12 [Imipenem] |  |  |  |  | 0.12 µg/mL |  |  | SCMA Results (MIC) ([6]; unit assumed): 1 µg/mL; SCMA Results (MIC) [11, 13]: 0.03 µg/mL
C[C@H]1COc2c(N3CCN(C)CC3)c(F)cc3c(=O)c(C(=O)O)cn1c23 [Levofloxacin] |  |  |  |  |  |  | 1 µg/mL | SCMA Results (MIC) ([11]; time to result 4 hr): 0.12~0.25
CC(=O)NC[C@H]1CN(c2ccc(N3CCOCC3)c(F)c2)C(=O)O1 [Linezolid] |  |  |  |  |  | RSG | 1~2 | CLSI QC range (MIC) [7]: 1~4; Criteria (change in morphology and growth pattern) [8]: RSG; Criteria (change in morphology and growth pattern) ([9]; listed as linezolid): Relatively slow growth (RSG); CLSI QC range (MIC) [10]: 1~4; SCMA Results (MIC) ([11]; time to result 4 hr): 1~4
C[C@@H](O)[C@H]1C(=O)N2C(C(=O)O)=C(S[C@@H]3CN[C@H](C(=O)N(C)C)C3)[C@H](C)[C@H]12 [Meropenem] |  | Swelling |  | 0.25~1 |  |  |  | SCMA Results (MIC) ([6]; unit assumed): 1 µg/mL
CCn1cc(C(=O)O)c(=O)c2cc(F)c(N3CCNCC3)cc21 [Norfloxacin] | Normal |  | 0.03~0.12 |  |  | RRG | 2~4 | CLSI QC range (MIC) [7]: 2~8; SCMA Results (MIC) [5]: 0.03~0.06
Cc1onc(-c2ccccc2)c1C(=O)N[C@@H]1C(=O)N2[C@@H]1SC(C)(C)[C@@H]2C(=O)O [Oxacillin] |  |  |  |  |  |  |  | Criteria (change in morphology and growth pattern) [8]: RRG; CLSI QC range (MIC) [10]: 0.12~0.5; SCMA Results (MIC) [11, 13]: 0.5 µg/mL
CCN1CCN(C(=O)N[C@@H](C(=O)N[C@@H]2C(=O)N3[C@@H]2SC(C)(C)[C@@H]3C(=O)O)c2ccccc2)C(=O)C1=O [Piperacillin] | Filament formation | Filament | 1~4 | 1~8 | 2 µg/mL |  |  | SCMA Results (MIC) [6]: 4~8
CO[C@H]1/C=C/O[C@@]2(C)Oc3c(C)c(O)c4c(O)c(c(/C=N/N5CCN(C)CC5)c(O)c4c3C2=O)NC(=O)/C(C)=C\C=C\[C@H](C)[C@H](O)[C@@H](C)[C@@H](O)[C@@H](C)[C@H](OC(C)=O)[C@@H]1C [Rifampin] |  |  |  |  |  | RSG | 0.5 µg/mL | CLSI QC range (MIC) [7]: 0.5~4; Criteria (change in morphology and growth pattern) [8]: RSG; CLSI QC range (MIC) [10]: 0.004~0.015; SCMA Results (MIC) ([11]; 6 hr): 0.004~0.08 (6 hr)
[H]/N=C(/N)N[C@H]1[C@H](O)[C@@H](O)[C@H](O[C@@H]2O[C@@H](C)[C@](O)(C=O)[C@H]2O[C@@H]2O[C@@H](CO)[C@H](O)[C@@H](O)[C@@H]2NC)[C@@H](N/C(N)=N\[H])[C@@H]1O [Streptomycin High Level, Streptomycin] |  |  |  |  |  | Normal | ≤ 500 µg/mL | CLSI QC range (MIC) ([7]; unit assumed): ≤ 500 µg/mL
CC1(C)S[C@@H]2[C@H](NC(=O)[C@H](C(=O)O)c3ccsc3)C(=O)N2[C@H]1C(=O)O [Ticarcilin] |  | Filament |  | 8~32 |  |  |  | SCMA Results (MIC) ([6]; unit assumed): 16 µg/mL
NC[C@H]1O[C@H](O[C@H]2[C@H](O)[C@@H](O[C@H]3O[C@H](CO)[C@@H](O)[C@H](N)[C@H]3O)[C@H](N)C[C@@H]2N)[C@H](N)C[C@@H]1O [Tobramycin] |  | Normal |  | 0.25~1 |  |  |  | 
Teicoplanin |  |  |  |  |  | Normal | 0.5 µg/mL | CLSI QC range (MIC) [7]: 0.25~1
